Assay results reported in US8835379B2, “Derivatives of CGRP” (Novo Nordisk A/S, priority 2009, dated 2014).

What was measured:
[1] = biological target: CGRP receptor (calcitonin receptor-like receptor (CRLR), receptor activity modifying protein-1 (RAMP1)) (Homo sapiens, UniProt O60894+Q16602); test: CGRP-induced cAMP accumulation in CGRP receptor expressing cells (CHO, CRE luciferase reporter); type: cell-based
Experimental: Chinese hamster ovary (CHO) cells were stably transfected with calcitonin receptor-like receptor (CRLR), receptor activity modifying protein-1 (RAMP1) and CRE luciferase (cAMP responsive element for control of luciferase gene expression). Luciferase is a reporter-gene reporting accumulation of intracellular cAMP).
Cells were cultured in F12 media supplemented with GlutaMAX™ (Gibco cat no 31765-027), FBS (10%, Gibco 16140-071), Penicillin-streptomycin (1%, Lonza DE-17-602E), G418 (400 μg/ml, Gibco 10131-027), Blasticidine (10 μg/ml, Corning cat no 15205), Hygromycin (400 μg/ml, Calbiochem cat no 400052).
Cells were seeded in a 96 well plate (Packard #6005180), 20000 cells/well in 100 μl media on the day before experimentation. On the day of experimentation media was replaced by assay medium (Dulbecco's media w/o phenol red (Gibco cat no 11880-028) supplemented with 10% FBS (10%, Gibco 16140-071), Hepes (10 mM, Gibco cat no 15630), GlutaMAX™ (2 mM, Gibco cat no 35050), 50 μl/well.
Peptides were diluted in assay media before added to cells for stimulation, 50 μl/well.
Cells were incubated 5% CO2, 37° C. for 4 hours.
Assay medium and peptides were replaced by phosphate buffered saline (PBS, Gibco cat no 14040-091), 100 μl/well and LucLite™ (PerkinElmer, cat no 6076759), 100 μl/well were added. The plate was sealed before incubation for 30 min at room temperature (21° C.). Luciferase activity (luminescens, 7 s/well) was measured (TopCount®, NXT, Packard).
Dose-response curves were fitted by use of GraphPad Prism software and pEC50 values were calculated. Data were given as mean±SEM, n=2 and each analogue was tested twice.

[2] = Pharmacokinetic properties of CGRP and analogues, plasma level by CGRP ELISA; type: in vivo; conditions: male, Sprague Dawley, rat, sc, SD rats, single s.c. injection, Analog alpha1 151 nmol/kg, Analogue beta1 231 nmol/kg
Experimental: Male Sprague Dawley rats (n=24) weighing approximately 250 g were used for the combined pharmacokinetic (T½, Cmaxetc.) and pharmacodynamic (GLP-1 release) study. The rats were divided in 4 groups with n=6 rats per group. The rats were treated with a single subcutaneous injection (1 ml/kg) of vehicle, alpha-CGRP (138 nmol/kg), Analogue beta1 (231 nmol/kg) or Analog alpha1 (151 nmol/kg). Blood (200 μl) was sampled from vena sublingualis from unanaesthetised rats pre-dose and at 0.5, 1, 3, 7 and 24 hours post dosing. Blood was collected in tubes containing EDTA. The samples were kept on ice and centrifuged. The plasma was kept at −20° C. until analysis for CGRP analog and total GLP-1.
A commercial available kit (Human CGRP ELISA, cat. #A05481, SPIbio) was used for monitoring the plasma levels of CGRP-analogues. Briefly, the assay was a two-sited enzyme-linked immuno sorbent assay (ELISA) using two antibodies against human CGRP. A monoclonal antibody was immobilized to the surface of micro plate wells. Five micro liter of plasma samples or calibrators were applied to the appropriate wells and incubated for 2 hours together with 100 μL buffer and 100 μL AChE-conjugated Fab′ fragment. […] The color intensity was determined by spectrophotometer at 405 nm. […] The lower limit of quantification of the modified CGRP assay was approximately 750 pM and the imprecision was (% CV)<10%.

[3] = CGRP-induced reduction in food intake by automatic food intake measurements (FeedWin); type: in vivo, Sprague Dawley (SD) rats; conditions: SD rats, s.c., monitored for 48 hours, FIG. 4
From the text: Upon arrival male Sprague Dawley (SD) rats were housed two per cage with a dividing wall between them. They were housed at reversed diurnal rhythm and with environmental enrichment. The rats were acclimatized to reversed diurnal rhythm for at least 1 week before being transferred to the experimental system cages (single housed). They were acclimatized to the experimental system cages for an additional 5-6 days before start of the experiment. The rats had ad libitum access to food (Altromin 1324) and water during acclimatization periods.
One day before start of the study the rats were divided in three or four groups (n=5-8) based on body weight (250-300 g).
16 hours before start of the study the rats were fasted. Food was returned in connection with dosing. The rats received a single injection subcutaneously (s.c., 1 ml/kg) with vehicle or CGRP analogue. Intraperitoneally dosing (i.p., 1 ml/kg) was used in the first experiment of the al analogue. The effect of analogues on food and water consumption was examined in a “FeedWIN” system (Ellegaard Systems A/S, Faaborg, Denmark). The system contained 32 stations. In each station the continuous water and food consumption for a single rat was recorded.
A station consisted of a cage with metal lid and two scales placed on each side of the cage. […] Data was collected each 15 minutes and up to 48 hours and expressed as accumulated food intake (Mean±SEM).

Chain of CGRP receptor (calcitonin receptor-like receptor (CRLR), receptor activity modifying protein-1 (RAMP1)) (Q16602 23-461, species assumed): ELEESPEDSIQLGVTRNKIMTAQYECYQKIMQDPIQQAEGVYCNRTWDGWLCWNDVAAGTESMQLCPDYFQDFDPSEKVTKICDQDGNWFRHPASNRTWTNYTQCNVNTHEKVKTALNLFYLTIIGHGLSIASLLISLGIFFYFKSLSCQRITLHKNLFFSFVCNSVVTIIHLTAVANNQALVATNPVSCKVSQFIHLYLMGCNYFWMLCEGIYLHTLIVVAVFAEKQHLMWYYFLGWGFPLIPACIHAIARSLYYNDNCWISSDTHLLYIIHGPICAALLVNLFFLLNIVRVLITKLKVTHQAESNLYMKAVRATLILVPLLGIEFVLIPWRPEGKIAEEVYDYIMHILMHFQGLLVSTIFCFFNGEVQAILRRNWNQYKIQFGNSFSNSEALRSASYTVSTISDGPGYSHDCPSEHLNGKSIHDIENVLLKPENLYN
Chain of CGRP receptor (calcitonin receptor-like receptor (CRLR), receptor activity modifying protein-1 (RAMP1)) (O60894 27-148, species assumed): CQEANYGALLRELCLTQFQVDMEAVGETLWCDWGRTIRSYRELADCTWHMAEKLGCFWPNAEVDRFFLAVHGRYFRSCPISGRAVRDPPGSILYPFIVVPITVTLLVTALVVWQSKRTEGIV

CC(C)C[C@H](NC(=O)CNC(=O)[C@H](C)NC(=O)[C@H](CC(C)C)NC(=O)[C@H](CCCNC(=N)N)NC(=O)[C@H](Cc1c[nH]cn1)NC(=O)[C@@H](NC(=O)[C@@H](NC(=O)[C@@H]1CSSC[C@H](NC(=O)[C@H](CO)NC(=O)COCCOCCNC(=O)CC[C@H](NC(=O)CCCCCCCCCCCCCCCCC(=O)O)C(=O)O)C(=O)N[C@@H](CC(=O)O)C(=O)N[C@@H]([C@@H](C)O)C(=O)N[C@@H](C)C(=O)N[C@@H]([C@@H](C)O)C(=O)N1)C(C)C)[C@@H](C)O)C(=O)N[C@@H](CC(C)C)C(=O)N[C@@H](CO)C(=O)N[C@@H](CCCNC(=N)N)C(=O)N[C@@H](CO)C(=O)NCC(=O)NCC(=O)N[C@H](C(=O)N[C@H](C(=O)N[C@@H](CCCCN)C(=O)N[C@@H](CC(N)=O)C(=O)N[C@@H](CC(N)=O)C(=O)N[C@@H](Cc1ccccc1)C(=O)N[C@H](C(=O)N1CCC[C@H]1C(=O)N[C@H](C(=O)N[C@@H](CC(N)=O)C(=O)N[C@H](C(=O)NCC(=O)N[C@@H](CO)C(=O)N[C@@H](CCCCN)C(=O)N[C@@H](C)C(=O)N[C@@H](Cc1ccccc1)C(N)=O)C(C)C)[C@@H](C)O)C(C)C)C(C)C)C(C)C [Analogue alpha 1, N-alpha-[2-(2-{2-[(S)-4-Carboxy-4-(17-carboxyheptadecanoylamino)butyrylamino]ethoxy}ethoxy)acetyl][Ser1]alpha-human CGRP peptide]
EC50 [1]: 0.09 nM
Cmax [2]: 250 nM
half-life ([2]; read-out: T½): > 7 h

N-alpha-[2-(2-{2-[(S)-4-Carboxy-4-(17-carboxyheptadecanoylamino)butyrylamino]ethoxy}ethoxy)acetyl][Ser1]beta-human CGRP peptide [Analogue beta 1]
accumulated food intake [3]: Reduction in accumulated food intake
